Key:
Type in all cases: in vivo
[1] = test system: grass (a European grass: bent grass); assay: Effects of proline, glutamine, arginine and urea on hydroponic cultivation of grass; settings: for Average leaf length / Average root length / Number of leaves per one root / Number of tillering per one root / Total weight of living plants per five roots / number of leaves and total weight of the living plant, in words: 40th day; for Average leaf length / Average root length / Number of leaves per one root / Number of tillering per one root / Total weight of living plants per five roots: 5 roots per group, proline 20 ppm, others at the same nitrogen amount; for number of leaves and total weight of the living plant, in words: five average stocks per group
Description: Seedlings of grass (a European grass: bent grass) were raised and divided into five groups of A to E, and hydroponic cultivation was carried out (Table 2 shown below). Group A was the control. Concerning Group B, proline was applied onto leaf surfaces once a week in an amount of 20 ppm.
(§1) Furthermore, five average stocks which had not been withered were sampled from each group and examined.

[2] = test system: grass (a European grass: bent grass); assay: Effect of proline on hydroponic cultivation of grass (2), proline concentration changed stepwise; settings: 40th day
Description: Seedlings of grass (a European grass: bent grass) were raised and divided into six groups of A to F, and hydroponic cultivation was carried out (Table 3 shown below). At that time, inosine was added to the hydroponic media for all the groups in such amount that the concentration became 2 ppm in each hydroponic medium. Group A was the control. In the groups of B to F, proline was applied onto leaf surfaces once a week with the concentration being changed stepwise.
as §1

[3] = test system: lawn grass (a European grass; bent grass); assay: Effect of proline on hydroponic cultivation of lawn grass (1); settings: for Average leaf length / Average root length / Number of leaves per one root / Number of tillering per one root / Total weight of living plants per five roots: 5 roots per group, inosine 2 ppm in hydroponic medium, proline 20 ppm onto leaf surfaces once a week; for tillering promotion (observation): confirmation on the 40th day, inosine 2 ppm in medium, proline 20 ppm foliar once a week
Description: Seedlings of grass (a European grass; bent grass) were raised and divided into four groups of A to D, and hydroponic cultivation was carried out (Table 1 shown below). Concerning Groups B and D, inosine was added to each hydroponic medium in such amount that the concentration became 2 ppm. Concerning Groups C and D, proline was applied onto leaf surfaces once a week in an amount of 20 ppm. Group A was the control. […] Furthermore, five average stocks which had not been withered were sampled from each group and examined.

[4] = 0.2% proline foliar once a week, inosine 2 ppm in hydroponic medium
[5] = 2.0% proline foliar once a week, inosine 2 ppm in hydroponic medium
[6] = 20 ppm proline foliar once a week, inosine 2 ppm in hydroponic medium
[7] = 200 ppm proline foliar once a week, inosine 2 ppm in hydroponic medium
[8] = group B, 2 ppm, inosine 2 ppm in hydroponic medium of all groups, foliar once a week

N=C(N)NCCC[C@H](N)C(=O)O [Arginine, arginine]
Average leaf length ([1]; foliar once a week): 18 cm
Average root length ([1]; foliar once a week): 2 cm
Number of leaves per one root ([1]; foliar once a week): 9
Number of tillering per one root ([1]; foliar once a week): 3
Total weight of living plants per five roots ([1]; foliar once a week): 0.51 g
number of leaves and total weight of the living plant, in words [1]: good results

O=C(O)[C@@H]1CCCN1 [Proline, proline]
Average leaf length [2, 4]: 23 cm
Average root length [2, 4]: 5 cm
Number of leaves per one root [2, 4]: 14
Number of tillering per one root [2, 4]: 3
Total weight of living plants per five roots [2, 4]: 0.90 g
Average leaf length [2, 5]: 19 cm
Average root length [2, 5]: 3 cm
Number of leaves per one root [2, 5]: 11
Number of tillering per one root [2, 5]: 3
Total weight of living plants per five roots [2, 5]: 0.40 g
Average leaf length [2, 6]: 24 cm
Average root length [2, 6]: 4 cm
Number of leaves per one root [2, 6]: 15
Number of tillering per one root [2, 6]: 4
Total weight of living plants per five roots [2, 6]: 0.95 g
Average leaf length [2, 7]: 24 cm
Average root length [2, 7]: 5 cm
Number of leaves per one root [2, 7]: 24
Number of tillering per one root [2, 7]: 4
Total weight of living plants per five roots [2, 7]: 1.01 g
inhibition of the growth or withering (observation) ([2]; Group F (2.0% proline foliar once a week), inosine 2 ppm in medium): inhibition of the growth or withering was observed
number of leaves and total weight of the living plant, in words ([2]; proline at a concentration of 2 ppm to 0.2%, inosine 2 ppm in medium): good results
Average leaf length ([1]; foliar once a week): 14 cm
Average root length ([1]; foliar once a week): 2 cm
Number of leaves per one root ([1]; foliar once a week): 17
Number of tillering per one root ([1]; foliar once a week): 5
Total weight of living plants per five roots ([1]; foliar once a week): 0.60 g
number of leaves and total weight of the living plant, in words [1]: good results
Average leaf length ([3]; 40th day): 22 cm
Average root length ([3]; 40th day): 1 cm
Number of leaves per one root ([3]; 40th day): 16
Number of tillering per one root ([3]; 40th day): 5
Total weight of living plants per five roots ([3]; 40th day): 0.53 g
growth (root length, leaf length and number, total weight of the living plant, tillering number), in words ([3]; 40th day, five average stocks per group): good growth
tillering promotion (observation) [3]: tillering promotion was clearly observed

NC(N)=O [Urea, urea, reference compound]
Average leaf length ([1]; foliar once a week): 15 cm
Average root length ([1]; foliar once a week): 2 cm
Number of leaves per one root ([1]; foliar once a week): 6
Number of tillering per one root ([1]; foliar once a week): 1
Total weight of living plants per five roots ([1]; foliar once a week): 0.34 g
tillering promotion (observation) ([1]; confirmation on the 40th day, foliar once a week, nitrogen amount equal to 20 ppm proline): no tillering promotion was observed

OC[C@H]1O[C@@H](n2cnc3c(O)ncnc32)[C@H](O)[C@@H]1O [Inosine, inosine]
Average leaf length [2, 8]: 24 cm
Average root length [2, 8]: 4 cm
Number of leaves per one root [2, 8]: 14
Number of tillering per one root [2, 8]: 3
Total weight of living plants per five roots [2, 8]: 1.04 g
Average leaf length ([3]; 40th day): 20 cm
Average root length ([3]; 40th day): 2 cm
Number of leaves per one root ([3]; 40th day): 7
Number of tillering per one root ([3]; 40th day): 2
Total weight of living plants per five roots ([3]; 40th day): 0.40 g
tillering promotion (observation) [3]: no tillering promotion was observed

NC(=O)CC[C@H](N)C(=O)O [Glutamine, glutamine]
Average leaf length ([1]; foliar once a week): 18 cm
Average root length ([1]; foliar once a week): 2 cm
Number of leaves per one root ([1]; foliar once a week): 11
Number of tillering per one root ([1]; foliar once a week): 3
Total weight of living plants per five roots ([1]; foliar once a week): 0.66 g
number of leaves and total weight of the living plant, in words [1]: good results

From patent US20020095695A1, “Tillering promoter for plant and method for tillering promotion of plant” (AJINOMOTO CO., INC., priority 2000, published 2002)
